Earlier results in US8608968B2, “Compositions for bioremediation and methods for using” (Carus Corporation, priority 2006, dated 2013).

Settings: dimensionless

Point of comparison: C [Methane], “Henry's Law Constant” value 27.2. Against it:
- Cl/C=C\Cl [cis-1,2-dichloroethene] — lower, 0.31
- C=CCl [Vinyl chloride] — lower, 0.95
- ClC=C(Cl)Cl [Trichloroethene] — lower, 0.48
- C=C [Ethene] — lower, 8.76
